Source: article PMC7737769, “Pharmacological inhibition of syntenin PDZ2 domain impairs breast cancer cell activities and exosome loading with syndecan and EpCAM cargo” (Journal of Extracellular Vesicles, 2020)

How the values were obtained:
[1] = tested on: MCF‐7 cells; assay: Soft agar colony formation assay; assay type: cell-based; conditions: wild-type MCF-7, 100 µM
Protocol: Agarose was melted in water and mixed with DMEM‐F12 medium pre‐incubated at 37°C to reach a 0.6% or a 0.36 % final concentration. A lower layer of 0.6% agarose was deposited in each well of a 96‐well plate except that the first and last rows and columns of the plate were filled with PBS to avoid drying. Agarose was allowed to cool for 15 min before the upper layer containing different concentrations of cells, a final concentration of 0.36% agarose and compounds (100 µM) was added. Compounds were added only once at the beginning of experiment. Each condition was tested in triplicate. Colonies were kept at 37°C in a 5% CO2 incubator and daily observed under microscope. At the end of the experiment, cells were tested for their ATP content, an indicator of their metabolic activity, using the Promega kit G7570. In this assay, ATP is used as a co‐factor for a luciferase reaction. Signals were analysed by measuring luminescence with a LUMIstar luminometer (BMG Labtech).

[2] = tested on: T1, Erbin‐Erbb2 complex; assay: HTRF assay, Erbin-ERBB2 interaction; assay type: biochemical, human; conditions: 400µM compound; Figure 1c
T1 construct: human Erbin PDZ domain; made in house; host or cells: E. coli BL21 (DE3)
Protocol: (§1) HTRF assays were performed in white 96Well Small VolumeHiBase Polystyrene Microplates (Greiner) with a total working volume of […], as described previously (Milhas et al., 2016). Briefly, compounds were firstly dispensed into the wells at 400 µM for the primary screen or with serial DMSO dilutions for IC50 measurement assays. Primary screening assays have been performed in monoplicate while IC50 measurements were performed in triplicates. All HTRF reagents were purchased from CisBio Bioassays and reconstituted according to the supplier protocols. The plates were spun for 3 min at 500 × g and then incubated at 4°C for 16 h. The HTRF signals were recorded on a POLAR star Omega plate reader (BMG Labtech) with an excitation filter at 337 nm and fluorescence wavelength measurement at 620 and 665 nm, an integration delay of 60 µs and an integration time of 400 µs. Results were analysed with a two‐wavelength signal ratio: [intensity (665 nm)/intensity (620 nm)] × 10^4. Percentage of inhibition was calculated using the following equation: % inhibition = [(compound signal)–(min signal)]/[(max signal)–(min signal)] × 100, where ‘max signal’ is the signal ratio with the compound vehicle alone (DMSO) and ‘min signal’ the signal ratio without protein B. For IC50 measurements, values were normalized and fitted with Prism (GraphPad software) using the following equation: Y = 100/(1+((X/ IC50)ˆHill slope)).
(§2) The search strategy for PDZ2 syntenin inhibitors was based on the PDZ targeted library developed from Enamine compound collection. The PDZ targeted library was developed to cover virtually all PDZ domains. Consequently, to create the syntenin PDZ2 focused library we used two independent paths: docking of the PDZ targeted library against structures of syntenin PDZ2 available in Protein Data Bank and a random selection from the PDZ targeted library. The docking has produced 21 virtual hits, which were added to 118 randomly selected compounds (10% of the pan PDZ library). The resultant set of 139 compounds, syntenin PDZ library was subjected to experimental validation. The primary screen was performed at 400µM using a previously validated Homogeneous Time Resolved Fluorescence (HTRF) assay (Milhas et al., 2016). HTRF is based on Fluorescence Resonance Energy Transfer (FRET) between two fluorescent reagents. In the present case, Anti‐GST‐Terbium antibody and streptavidin‐bound Dynamic2 were used as donor and acceptor respectively. Interactions between GST PDZ‐fusion proteins and biotinylated peptides containing PDZ binding motifs were challenged with the potential inhibitors. In parallel, control experiments were performed with a biotinylated‐GST to verify that compounds were not interfering with the FRET signal in a non‐specific manner. To identify inhibitors of syntenin PDZ interactions, we tested for the effect of the 139 compounds on syntenin‐SDC2 and syntenin‐Frizzled7 complexes (Figure 1a; Table S1). When the HTRF signal dropped below 0.9, inhibition was considered as effective. […] Noteworthy, these compounds had no effect on other PDZ complexes like GRASP55‐JAM‐B or GRASP55‐JAM‐C and Erbin‐Erbb2 or Erbin‐P0071 (Figure 1c).

[3] = tested on: T2, GRASP55‐JAM‐C complex; assay: HTRF assay, GRASP55-JAM-C interaction; assay type: biochemical, human; conditions: 400µM compound; Figure 1c
T2 construct: Human GRASP55 tandem PDZ; made in house; host or cells: E. coli BL21 (DE3)
Protocol: as §1, §2

[4] = tested on: MCF‐7 SyntKO cells; assay: Mammosphere formation assay, MCF-7 SyntKO; assay type: cell-based; conditions: 100 µM
Protocol: MCF‐7 and MCF‐7 SyntKO cells were treated with increasing concentrations of compounds C58, SyntOFF (50‐100µM) or DMSO 0.2% as control. After 24 h, cells were trypsinized, re‐suspended in normal growth media and washed three times in PBS to remove serum. Cell concentration was determined using the LUNA-FL Automated Fluorescence Cell Counter (Logos Biosystem) and cells were then seeded at 1000 cells/ml in 6‐well Ultra low Adherence plates (Corning Inc., Corning, NY) in MEBM medium (Lonza) supplemented with 5 µg/ml insulin (Sigma‐Aldrich), 20 ng/ml recombinant epidermal growth factor (Sigma‐Aldrich), 1X of B27 supplement (Invitrogen, Carlsbad, CA, USA), 0.5 µg/ml hydrocortisone (Sigma‐Aldrich), 1X of β‐mercaptoethanol and 1% penicillin/streptomycin (Gibco). Fresh medium was added into the plates every 3–4 days. The number of spheres (diameter > 50 µm) was evaluated under microscope on days 7–10. Sphere formation was calculated as the number of spheres divided by the original number of cells seeded and normalized to control.

Compound | colony formation in soft agar [1] | GST-Erbin ERBB2 (signal ratio) [2] | GST-GRASP JAM-C (signal ratio) [3] | mammosphere formation [4]
CC(C)[C@H](NC(=O)CSc1ccc(Cl)cc1)C(=O)O [Compound C58] | decreases | 1.01 | 1 | 
CC(C)[C@H](NC(=O)CCSc1ccc(Cl)cc1)C(=O)O [SyntOFF, (S)‐2‐(3‐(4‐chlorophenylthio)propanamido)‐3‐methylbutanoic acid] |  |  |  | no effect
